Test results taken from patent US20080318970A1, “Treatment of Infectious Diseases” (priority 2004, published 2008).
Read-outs that look alike come from different tables or passages of the source.

Columns and labels:
[1] = system: E. coli, LN 3164; assay: Effect of chemosensitising compounds on DR (DR ratio) with ciprofloxacin, microtiter assay; format: cell-based; conditions: for DR ratio: MIC ciprofloxacin alone / MIC ciprofloxacin + chemosensitising compound at ¼ of its MIC
Description: The effects of the chemosensitising compounds on DR were studied by the microtiter assay described above by exposing cells to 0-64 μg/ml anti-infective drug in the absence or presence of chemosensitising compound. Each experiment was repeated in tripleduplicate. MIC values represent the mean values of two separate experiments.
A log phase culture of bacteria was diluted with fresh pre-warmed medium and adjusted to a defined OD at 600 nm in order to give a final concentration of 1×10^4 bacteria/ml medium in each well. […] Anti-infective agent was added to the bacterial culture in the wells in two-fold dilutions in order to give final concentrations ranging from 0 to 64 μg/ml. Trays were incubated at 37° C. for 16 h. The DR ratio was defined as the ratio between the MIC value for anti-infective agent alone divided by the MIC for the anti-infective agent in the presence of the chemosensitising compound. This ratio represents the increase in apparent potency of the anti-infective agent caused by the chemosensitising compound, and may be expressed as
DR ratio=(MICanti-infective agent)/(MICanti-infective agent+chemosensitising compound)

[2] = system: E. coli, LN 3164; assay: MIC susceptibility test, microdilution broth method (NCCLS), chemosensitising compound alone; format: cell-based; conditions: 16 h
Description: Bacteria were sub-cultured on Mueller-Hinton agar plates and incubated over night at 37° C. Pre-warmed Mueller-Hinton broth was inoculated with colonies from the plate and incubated for approximately three hours to achieve a log phase culture. The log phase culture of bacteria was diluted with fresh pre-warmed medium and adjusted to a defined Optical Density (OD) at 600 nm in order to give a final assay concentration of 1×10^4 bacteria/ml medium.
Cell growth was tested using the MIC susceptibility tests by use of the microdilution broth method in accordance to the NCCLS Guidelines (NCCLS Guidelines, Methods for Dilution Antimicrobial Susceptibility Tests for Bacteria That Grow Aerobically; Approved Standard, Sixth Edition, Volume 23; Number 2). A 100% Mueller-Hinton broth and a bacterial concentration of 1×10^4/ml were used.
A log phase culture of bacteria was diluted with fresh pre-warmed medium and adjusted to a defined OD at 600 nm in order to give a final concentration of 1×10^4 bacteria/ml medium in each well. Each chemosensitising compound was added to the bacterial culture in the wells in two-fold dilutions in order to give final concentrations ranging from 8 to 500 μg/ml. Trays were incubated at 37° C. for 16 h. Minimal Inhibitory Concentration, (MIC) is defined as the lowest inhibitory concentration showing no visible growth according to the NCCLS Guidelines.

[3] = system: Fluconazole Resistant Candida albicans; assay: Checkerboard combination study on fungals, broth microdilution (NCCLS M27-A); format: cell-based; conditions: Candida albicans
Description: The synergistic effect of Trans-clopenthixol was studied by checkerboard combination studies exposing cells to 0-256 μg/ml anti-infective agent in the absence or presence of trans-clopenthixol (0 to 8 μg/ml in two-fold dilutions). Each experiment was repeated in tripleduplicate. MIC values represent the mean values of two separate experiments.
Clinical Isolate of a Fluconazole Resistant Candida albicans from a Patient with candidemia.
The isolates were subcultured for 24 h on Sabouraud glucose agar before susceptibility testing.
Broth microdilution tests were performed according to NCCLS document M27-A (Ref: National Committee for Clinical Laboratory Standards. (1997). Reference Method for Broth Dilution Antifungal Susceptibility Testing of Yeasts: Approved Standard M27-A. NCCLS, Wayne, Pa.)
Microtitre plates were read spectrophotometrically at 530 nm, after mixing the wells by pipetting to resuspend yeast sediments.
The Fractional Inhibitory Concentration (FIC) was calculated for the anti-infective agent alone and in combination with trans-clopenthixol. The following formulae were used to calculate the FIC index:
(§1) FIC=FICchemosensitising compound+FICanti-infective agent
(§2) FICchemosensitising compound=(MICchemosensitising compound+anti-infective agent)/(MICchemosensitising compound)
FICanti-infective agent=(MICanti-infective agent+chemosensitising compound/(MICanti-infective agent)
(§3) Synergy was defined as a FIC index of <0.5.

[4] = system: E. faecalis F86; assay: Checkerboard combination study (FIC index); format: cell-based, Enterococcus faecalis; conditions: anti-infective agent Dicloxacillin; isolate susceptible (S)
Description: Enterococcus faecalis, F86. Susceptible clinical isolate. No development of resistance.
(§4) The synergistic effect was studied by checkerboard combination studies exposing cells to 0-64 μg/ml anti-infective agent in the absence or presence of trans-flupenthixol, cis-flupenthixol or trans-clopenthixol. Each experiment was repeated in tripleduplicate. MIC values represent the mean values of two separate experiments,
(§5) A log phase culture of bacteria was diluted with fresh pre-warmed medium and adjusted to a defined OD at 600 nm in order to give a final concentration of 1×10^4 bacteria/ml medium in each well. Each chemosensitising compound was added to the bacterial culture in the wells in two-fold dilutions in order to give final concentrations ranging from 0 to 8 μg/ml. Anti-infective agent was added to the bacterial culture in the wells in two-fold dilutions in order to give final concentrations ranging from 0 to 64 μg/ml Trays were incubated at 37° C. for 16 h. Wells were assessed visually for growth. The Fractional Inhibitory Concentration (FIC) was calculated for each anti-infective agent alone and in combination with trans-flupenthixol, cis-flupenthixol or trans-clopenthixol. The following formulae were used to calculate the FIC index:
as §1, §2
(§6) FICanti-infective agent=(MICanti-infective agent+chemosensitising compound/(MICanti-Infective agent)
as §3

[5] = system: S. aureus O11; assay: Checkerboard combination study (FIC index); format: cell-based, Staphylococcus aureus; conditions: anti-infective agent Dicloxacillin; isolate susceptible (S)
Description: Staphylococcus aureus O11. Clinical isolate resistant to penicillin. Susceptible to methicillin, tetracycline, beta-lactams, fluoroquinolones, chloramphenicol and aminoglycosides.
as §4, §5, §1, §2, §6, §3

[6] = system: E. coli LN 3164; assay: Checkerboard combination study (FIC index); format: cell-based; conditions: MDR isolate
Description: E. coli, LN 3164. Acr AB-ToIC MDR in vitro-selected mutant. Resistant to tetracycline, beta-lactams, fluoroquinolones, chloramphenicol and aminoglycosides.
as §4, §5, §1, §2, §6, §3

[7] = system: E. coli 331ME; assay: Checkerboard combination study (FIC index); format: cell-based; conditions: MDR isolate
Description: E. coli 331 ME. In vivo-selected multidrug resistant clinical isolates of E. coli. Strains were isolated from a patient with severe cystitis/urosepsis. Resistant to tetracycline, beta-lactams, fluoroquinolones, chloramphenicol and aminoglycosides.
as §4, §5, §1, §2, §6, §3

[8] = system: P. aeruginosa 432b; assay: Checkerboard combination study (FIC index); format: cell-based; conditions: isolate resistant (R)
Description: P. aeruginosa 432b. Clinical multidrug resistant isolate. Resistant to tetracycline, beta-lactams, fluoroquinolones, and aminoglycosides. Beta-lactamase producing, changes in Penicillin Binding Proteins and changes in Outer Membrane Proteins.
as §4, §5, §1, §2, §6, §3

[9] = clinical trial versus placebo, Johnstone et al.; cited from earlier work
[10] = system: S. aureus E45; assay: Checkerboard combination study (FIC index); format: cell-based, Staphylococcus aureus; conditions: isolate resistant (R)
Description: Staphylococcus aureus E45 MRSA. Clinical isolate. Resistant to methicillin. Susceptible to teicoplanin chloramphenicol, fosfomycin, netilmicin and vancomycin.
as §4, §5, §1, §2, §6, §3

[11] = system: E. faecalis F84; assay: Checkerboard combination study (FIC index); format: cell-based, Enterococcus faecalis; conditions: for FIC index: MDR isolate
Description: Enterococcus faecalis, F84. A multidrug resistant clinical isolate.
as §4
as §5, with “Each chemosensitising compound was added to the bacterial culture in the wells in two-fold dilutions in order to give final concentrations ranging from 0 to 8 μg/ml.” left out
as §1, §2, §6, §3

[12] = anti-infective agent Ciprofloxacin
[13] = anti-infective agent Gentamicin
[14] = anti-infective agent Piperacillin
[15] = anti-infective agent Dicloxacillin

Row | Structure (SMILES) | DR ratio ([1]; E. coli LN 3164) | MIC ([2]; 37° C.) [µg/mL] | other results
1 | OCCN1CCN(CCCN2c3ccccc3Sc3ccc(Cl)cc32)CC1 [Perphenazine, perphenazine] | 4 | 125 | 
2 | OC(Cn1cncn1)(Cn1cncn1)c1ccc(F)cc1F [Fluconazole, reference compound] |  |  | MIC [3]: 128 µg/mL
3 | CN(C)CCN1c2ccccc2Sc2ccc(Cl)cc21 [2-chloro-10-(2-dimethylaminoethyl)phenothiazine] | 2 |  | MIC ([2]; Escherichia coli, LN3164, 37° C., read-out: MIC): 64 µg/mL
4 | CN(C)CCCN1c2ccccc2Sc2cccc(Cl)c21 [1-chlorpromazine] | 2 | 64 | 
5 | CN(C)CCCN1c2ccccc2Sc2ccccc21 [Promazine, promazine] | 2 | 64 | sensitised drug resistant cells to ciprofloxacin by ([1]; E. coli LN 3164, ciprofloxacin): 100%
6 | CN1CCN(CCCN2c3ccccc3Sc3ccc(Cl)cc32)CC1 [Prochlorperazine, prochlorperazine] | 4 | 64 | 
7 | CN(C)CCCN1c2ccc(O)cc2Sc2ccc(Cl)cc21 [7-hydroxy-chlorpromazine, 7-hydroxychlorpromazine] | 1 | 125 | 
8 | CN(C)CCCN1c2ccccc2[S+]([O-])c2ccc(Cl)cc21 (stereo not shown) [chlorpromazine sulfoxide] |  |  | activity against drug resistance (in words) ([1]; E. coli LN 3164, ciprofloxacin): same activity against drug resistance as did chlorpromazine
9 | OCCN1CCN(CC/C=C2/c3ccccc3Sc3ccc(C(F)(F)F)cc32)CC1 [cis-flupenthixol, reference compound] | 32 | 32 | FIC index [4]: 0.50; FIC index [5]: 0.50; FIC index [6, 12]: 0.25; FIC index [6, 13]: 0.25; FIC index [6, 14]: 0.25; FIC index [7, 12]: 0.013; FIC index [7, 13]: 0.06; FIC index [7, 14]: 0.25; FIC index [8, 12]: 0.06; FIC index [8, 13]: 0.13; FIC index [8, 14]: 0.25; anti-psychotic effect (in words) [9]: potent neuroleptic; FIC index [10, 15]: 0.25; FIC index ([10]; anti-infective agent Fucidic acid): 0.26; FIC index [11, 15]: 0.13; FIC index ([11]; anti-infective agent Vanomycin): 0.25
10 | CN[C@H](CC(C)C)C(=O)N[C@H]1C(=O)N[C@@H](CC(N)=O)C(=O)N[C@H]2C(=O)N[C@H]3C(=O)N[C@H](C(=O)N[C@H](C(=O)O)c4cc(O)cc(O)c4-c4cc3ccc4O)[C@H](O)c3ccc(c(Cl)c3)Oc3cc2cc(c3O[C@@H]2O[C@H](CO)[C@@H](O)[C@H](O)[C@H]2O[C@H]2C[C@](C)(N)[C@H](O)[C@H](C)O2)Oc2ccc(cc2Cl)[C@H]1O [vancomycin, reference compound] |  |  | MIC value ([11]; E. faecalis F84 cultivated in the presence of vancomycin at 4 μg/ml): 4 μ/ml
11 | CN1CCN(CCCN2c3ccccc3Sc3ccc(C(F)(F)F)cc32)CC1 [Trifluoperazine, trifluoperazine] | 16 | 16 | 
12 | OCCN1CCN(CCCN2c3ccccc3Sc3ccc(C(F)(F)F)cc32)CC1 [Fluphenazine, fluphenazine] | 8 | 32 | 
13 | CC(CN1c2ccccc2Sc2ccccc21)N(C)C (stereo not shown) [Promethazine, promethazine] | 8 | 64 | 
14 | CN(C)CCCN1c2cc(Cl)ccc2Sc2cc(O)c(O)cc21 [7,8-dihydroxy-chlorpromazine, 7,8-dihydroxychlorpromazine] | 0.5 | 125 | 
15 | CN(C)CCCN1c2ccccc2Sc2ccc(C(F)(F)F)cc21 [Trifluopromazine, trifluopromazine] | 8 | 32 | 
16 | CN(C)CCCN1c2ccccc2Sc2ccc(Cl)cc21 [chlorpromazine] | 4 | 32 | sensitised drug resistant cells to ciprofloxacin by ([1]; E. coli LN 3164, ciprofloxacin): 220%; increase in anti-DR activity, tertiary versus secondary amine ([1]; chlorpromazine versus desmethylchlorpromazine): 1.6 fold
17 | CNCCCN1c2ccccc2Sc2ccc(Cl)cc21 [Desmethyl-chlorpromazine, desmethylchlorpromazine] | 2 | 32 | 
18 | CSc1ccc2c(c1)N(CCCN(C)C)c1ccccc1S2 [Thiomethylpromazine, thiomethylpromazine] | 4 | 32 | 
